Publication PMC5381078, “Carboxylate derivatives of tributyltin (IV) complexes as anticancer and antileishmanial agents” (DARU Journal of Pharmaceutical Sciences, 2017)

Experiments:
[1] = tested on: Leishmania tropica kwh 23 promastigotes; experiment: ROS mediated antileishmanial activity (NaN3 / mannitol scavengers); assay type: cell-based; conditions: for Reduction of antileishmanial activity in the presence of NaN3: NaN3 0.1 mM; for Reduction of antileishmanial activity in the presence of mannitol: mannitol 1 mM
Protocol: Leishmania tropica kwh 23 promastigotes were treated in three groups. First group was exposed to samples along with 0.1 mM sodium azide (NaN3), second group to samples with 1 mM mannitol and third group comprised of all controls. In third group, promastigotes were treated in different wells with samples only (sample control), 1% DMSO in PBS only (negative control-I), amphotericin B only (positive control), 0.1 mM NaN3 only (negative control-II) and 1 mM mannitol only (negative control-III). Plates were incubated followed by MTT assay described above.

[2] = tested on: promastigotes of Leishmania tropica kwh 23; experiment: Antileishmanial activity (MTT assay); assay type: cell-based; conditions: 72 h; for Antileishmanial % growth inhibition (mortality, lethality): 20 μg/mL; for Antileishmanial LC50: MTT
Protocol: Antileishmanial activity against the promastigotes of Leishmania tropica kwh 23 was evaluated by a quantitative colorimetric assay using 3-(4,5-dimethylthiazol-2-yl)-2, 5-diphenyl tetrazolium bromide (MTT) with minor modifications. […] […] Negative control wells contained 1% DMSO in PBS. All samples were run in triplicate. Afterwards, plates were incubated for 4 h at 24 °C with 20 μL of MTT (4 mg/mL in distilled water) to determine the cell viability. Supernatant from each well was carefully removed leaving behind formazan crystals. Colored formazan crystals were dissolved in 100 μL of DMSO by setting those aside for 1 h to ensure complete dissolution. Cell viability was estimated by measuring absorbance at 540 nm using microplate reader and percentage growth inhibition was calculated.

[3] = tested on: Streptomyces 85E; experiment: Protein kinase inhibition assay (Streptomyces disc assay); assay type: cell-based; conditions: for ZOI CZ (clear zone): (-) shows no ZOI; for ZOI BZ (bald zone): BZ indicative of PK inhibition; for MIC for PK inhibition: minimum inhibitory concentration
Protocol: Protein kinase inhibitory activity of the tributyltin (IV) compounds was measured against Streptomyces 85E strain using previously described protocol. Culture of Streptomyces 85E was refreshed in tryptic soy broth and 100 μL of this was swabbed on sterile ISP4 medium under aseptic conditions. […] Diameter (mm) of zone of inhibition (ZOI) around all samples and controls was measured as clear zone (CZ) and bald zone (BZ). […] BZ is indicative of PK inhibition.

[4] = tested on: THP-1 cell line; experiment: Cytotoxicity against THP-1 cell line (MTT assay); assay type: cell-based, human; conditions: 20 μg/mL, 72 h
Protocol: Cytotoxicity of tributyltin (IV) compounds against THP-1 cell line was determined by 3-(4,5-dimethylthiazol-2-yl)-2,5-diphenyl tetrazolium bromide (MTT) assay. THP-1 cells were cultured in complete growth medium comprising RPMI-1640 (pH 7.4) supplemented with 2.2 g/L NaHCO3 and 10% v/v heat inactivated fetal bovine serum (HIFBS). An aliquot of 20 μL of samples in 1% DMSO in PBS and 180 μL of THP-1 cells were mixed in 96-well plate. Cells were added at an assay density of 1 × 10^4 cells/mL whereas sample/standard was added to achieve the final concentration of 20 μg/mL. The plate was incubated at 37 °C for 72 h in humidified 5% carbon dioxide incubator (Panasonic, Japan MCO-18 AC-PE). Vincristine and 1% DMSO in PBS were used as positive and negative controls respectively. After incubation, 20 μL of pre-filter sterilized MTT solution (4 mg/mL in distilled water) was added in plates and incubated for 4 h at 37 °C in CO2 incubator. Later, colored formazan crystals were separated by removing supernatant and dissolved in 100 μL of DMSO. Reaction was allowed to stand for 1 h to ensure complete dissolution and absorbance was measured at 540 nm using microplate reader (Biotech USA, Elx 800).

[5] = tested on: Leishmania tropica kwh 23 promastigotes; experiment: Photosensitizing effect against leishmania; assay type: cell-based; conditions: 0.092 μg/mL; for Photosensitizing effect % growth inhibition, Sunlight with IR filter: 15 min; for Photosensitizing effect % growth inhibition, Sunlight: 15 min sunlight
Protocol: Photosensitizing effect of tributyltin (IV) compounds was determined in three parallel groups. Samples and controls were exposed for 15 min to sunlight (168 W/m^2 of sun intensity) or sunlight with IR filter or dark conditions. The relative intensity of sunlight was measured by a CCD spectrometer (Ocean Optics, model HR4000). Later, plates were incubated at 25 °C for 72 h and cell viability was determined by MTT assay as given above. In this assay, samples were tested at concentrations showing less than 55% inhibition in primary antileishmanial assay to exclude false positive.

[6] = tested on: isolated lymphocytes; experiment: Cytotoxicity against isolated lymphocytes (MTT assay); assay type: cell-based, human; conditions: 24 h
Protocol: Lymphocytes were isolated using previously described protocol with some modifications. Informed consent was obtained from volunteers and procedure was conducted according to international ethical guidelines after gaining approval from the ethical committee of the Quaid-i-Azam University. A volume of 3 mL of blood was obtained from a healthy donor by venipuncture and diluted (1:1) with PBS. It was layered over 2 mL Histopaque-1077 and centrifuged at 800 × g for 20 min. The buffy coat was aspirated into 5 mL of PBS and centrifuged at […] for 4 min to pellet the lymphocytes. The pellet was suspended in 1 mL of RPMI-1640 and cell density was adjusted to get 1 × 10^5 cells/mL. For cytotoxicity determination, 20 μL of samples (20 μg/mL) or vincristine or 1% DMSO in PBS and 180 μL of lymphocyte suspension were incubated in 96-well plate at 37 °C for 24 h in humidified 5% carbon dioxide incubator (Panasonic, Japan MCO-18 AC-PE). Phytohaemagglutinin (PHA) was added in medium to stimulate lymphocyte growth. Afterwards, MTT assay was done as described above. IC50 values were determined using 3-fold dilutions of the samples.

[7] = tested on: HepG2 cell line; experiment: Cytotoxicity against HepG2 cell line (SRB assay); assay type: cell-based, human; conditions: 72 h
Protocol: Cytotoxicity was further evaluated against HepG2 cell line by sulforhodamine B (SRB) colorimetric assay. Dulbecco's Modified Eagle Medium (DMEM) supplemented with 10% FBS, 100 μg/mL streptomycin sulfate, 100 IU/mL penicillin G sodium and 0.25 μg/mL amphotericin B was used to culture HepG2 cells in CO2 (5%) incubator (Panasonic, Japan MCO-18 AC-PE) at 37 °C. An aliquot of 20 μL (1% DMSO in PBS) of samples was added to 180 μL of cell culture at an assay density of 1x10^5 cells/mL in 96-well plate. The plate was incubated at 37 °C for 72 h in CO2 incubator. Final concentration of compounds/standard was 20 μg/mL. Doxorubicin and 1% v/v DMSO in PBS ere used as positive and negative controls respectively. An equivalent number of cells in twelve wells of 96-well plate were incubated for 1 h at 37 °C and labeled as day zero control. Later, cells were fixed by adding 50 μL of cold 20% w/v TCA for 1 h at 4 °C. These were washed with tap water, air dried and stained with 50 μL of 0.057% w/v SRB in 1% v/v acetic acid for 30 min at room temperature. Cells were again washed with 1% v/v acetic acid, dried overnight and 200 μL of 10 mM Tris base (pH 10) was used to solubilize the bound dye for 1 h. Absorbance was measured at 515 nm using a microplate reader. Percentage of growth inhibition was calculated as: % inhibition = 100 – [(As – Ao) / (An – Ao) × 100], where, Ao, As and An are absorbance of day zero control, samples and negative control respectively. IC50 values were determined using 3-fold dilutions of the samples.

[8] = tested on: axenic log-phase promastigotes; parameters: method as in PMID 19546361; conditions: cited from earlier work
[9] = tested on: cellular metacyclic promastigotes; parameters: method as in PMID 19546361; conditions: cited from earlier work

Structure (SMILES) | Reduction of antileishmanial activity in the presence of NaN3 [1] [%] | Reduction of antileishmanial activity in the presence of mannitol [1] [%] | mortality at 20 µg/mL ([2]; Leishmania tropica, read-out: Antileishmanial % growth inhibition (mortality, lethality)) [%] | ZOI CZ (clear zone) ([3]; 6.25 μg/disc) [mm] | ZOI BZ (bald zone) ([3]; 6.25 μg/disc) [mm] | ZOI CZ (clear zone) ([3]; 50 μg/disc) [mm] | MIC for PK inhibition [3] [μg/disc] | THP-1 % growth inhibition [4] [%] | Photosensitizing effect % growth inhibition, Control [5] [%] | Photosensitizing effect % growth inhibition, Dark [5] [%] | Photosensitizing effect % growth inhibition, Sunlight with IR filter [5] [%] | Photosensitizing effect % growth inhibition, Sunlight [5] [%] | Isolated lymphocytes IC50 [6] [µg/mL] | Antileishmanial % growth inhibition (mortality, lethality) [2] [%] | Antileishmanial LC50 [2] [µg/mL] | HepG2 % growth inhibition ([7]; 20 μg/mL) [%] | HepG2 IC50 ([7]; 3-fold dilutions) [µg/mL] | Isolated lymphocytes % growth inhibition ([6]; 20 μg/mL) | IC50 [8] [µg/mL] | IC50 [9] [µg/mL]
C[C@@H]1[C@H](O)[C@@H](C)/C=C/C=C/C=C/C=C/C=C/C=C/C=C/[C@H](O[C@@H]2O[C@H](C)[C@@H](O)[C@H](N)[C@@H]2O)C[C@@H]2O[C@](O)(C[C@@H](O)C[C@@H](O)[C@H](O)CC[C@@H](O)C[C@@H](O)CC(=O)O[C@H]1C)C[C@H](O)[C@H]2C(=O)O [Amphotericin B, reference compound] | 16 | 10 | 100 | – | – | – | – | – | – | – | – | – | – | – | – | – | – | – | – | –
CCC[CH2][Sn]([CH2]CCC)([CH2]CCC)[O]C(=O)/C=C\C(=O)NC1CCCCC1 [Ch-442, tributylstannyl (Z)-4-(cyclohexylamino)-4-oxobut-2-enoate] | 22 | 38.2 | – | 10 ± 0.74 | 29 ± 0.78 | 40 ± 1.17 | 0.391 ± 0.006 | 44.6 ± 1.18 | 46.1 ± 0.56 | 44.18 ± 1.16 | 49.25 ± 0.63 | 40.5 ± 0.12 | 14.9 ± 0.25 | 95.8 ± 2.16 | 0.088 ± 0.009 | – | – | – | – | –
CCC[CH2][Sn]([CH2]CCC)([CH2]CCC)[O]C(=O)/C=C\C(=O)Nc1ccccc1 [Ch-458, tributylstannyl (Z)-4-oxo-4-(phenylamino)but-2-enoate] | – | – | – | 12 ± 1.25 | 31 ± 1.37 | 30 ± 1.2 | 0.195 ± 0.001 | 21.2 ± 1.57 | 35.2 ± 1.78 | 36.7 ± 0.74 | 30.25 ± 0.17 | 42.7 ± 1.35 | – | 97.8 ± 1.23 | 0.256 ± 0.064 | 98.7 ± 3.56 | 1.58 ± 0.07 | 14.8 ± 0.13ǂ % | – | –
O.O.O.O.O.O.O.O.O.O=C([O-])[C@@H]1[O][Sb](=[O])([O][Sb]2(=[O])[O][C@H]([C@H](O)CO)[C@H](O)[C@H](C(=O)[O-])[O]2)[O][C@H]([C@H](O)CO)[C@@H]1O.[Na+].[Na+].[Na+] (stereo partly drawn) [sodium stibogluconate] | – | – | – | – | – | – | – | – | – | – | – | – | – | – | – | – | – | – | 64 | 22
